Tests used:
HeLa cells [1] = assay: xCelligence real-time cell analysis (RTCA) cytotoxicity assay, HeLa; format: cell-based, human
Protocol: (§1) The A549 and HeLa cell lines were cultured directly in DMEM (Dulbecco's Modified Eagle Medium), and then supplemented with 10% fetal bovine serum (FBS) and 1% streptomycin/penicillin. Then, the cancer cell samples were kept in a humidified incubator at 37° C. with 5% CO2.
(§2) The cytotoxicity of complexes was measured using xCelligence RTCA DP system (ACEA Biosciences, San Diego, Calif., USA). Briefly, the instrument was positioned in a humidified incubator at 37° C. with 5% CO2. The cytotoxicity experiments were conducted using modified 16-well plate (E-plate) with gold-microelectrodes attached at the base of the wells for the impedance-based attachment detection, cell distribution, and proliferation. A 50 μL of cell-free growth DMEM with 10% FBS was added to the wells. Then, the system was connected to measure the background impedance for each well for 30 min. A549 and HeLa cells were harvested using 0.05% Trypsin-EDTA (ethylenediaminetetraacetic acid), and then counted using LUNA automated cell counter (Logos Biosystem, Seoul, South Korea). 50 μL of the cell suspension was then added directly to each well containing 50 μL of cell-free growth DMEM with 10% FBS—Final to reach cell density of 5×10^3. The plates were left at room temperature for about 30 minutes and then inserted to xCelligence RTCA DP device. The xCelligence RTCA system software v.2.0 automatically monitored the impedance value of individual well. These values are expressed as CI (Cell Index) every 15 minutes. […] Then, cells were real time-monitored for 72 hours. All tested compounds were dissolved in DMSO, while cisplatin in normal saline solution. The final concentration of DMSO was less than 0.1% in each well. For negative control, 0.1% DMSO solution was used. Then IC50 values for all compounds at 24 hours and 72 hours were calculated using RTCA software v.2.0.
(§3) For all impedance profiles, the sigmoidal dose-response curves (FIGS. 2A-D) were obtained, and IC50 values were calculated (see Table 4). The calculations were based upon the CI, which is a relative and dimensionless value representing the impedance change divided by the background value, and thus reflects the overall number of cells and the quality of their attachment [D. Kho, C. MacDonald, R. Johnson, C. P. Unsworth, S. J. O'Carroll, E. du Mez, C. E. Angel, E. S. Graham. […] Biosensors 5 (2015) 199-222, incorporated herein by reference in its entirety]. The CI can change as a function of time, resulting in time-dependent and dose-dependent impedance profiles during an experiment [D. Kho, C. MacDonald, R. Johnson, C. P. Unsworth, S. J. O'Carroll, E. du Mez, C. E. Angel, E. S. Graham. […] Biosensors 5 (2015) 199-222, incorporated herein by reference in its entirety].

A549 cells [2] = assay: xCelligence real-time cell analysis (RTCA) cytotoxicity assay, A549; format: cell-based, human
Protocol: as §1, §2, §3

HeLa cells [3] = assay: Wound healing assay (cell migration); format: cell-based, human; settings: for cells migrated, % of the cell-free area (scratch closure): DMSO control approximately 73%
Protocol: The Culture-Insert 2 Well (ibidi Gmbh, Germany) was placed into micro-plate 24. 70 μL of 5×10^5 of HeLa cells was seeded into the culture-insert. The seeded cells were incubated for 24 hours under a specific condition (37° C., 5% CO2) to form monolayer cells. After 24 hours of the incubation, the culture-inserts were removed and the cells were gently washed with PBS to remove cell debris and detached cells. The cells were then treated with the cell culture mediums containing complex 1 at specific concentrations (1, 3, 10, 30 μM) and containing 0.1% DMSO as control. All assays were conducted in duplicates. In order to analyze the migration capacity, images of the cells were taken at 0 hours, 6 hours, and 12 hours using Optika microscope, Italy. The gap closure was determined using a web-based quantitative image solution (http://www.metavilabs.com/metavi2/index.html)
Cell migration is essential in the development and maintenance of multicellular organism. It plays a central role in tissue formation during embryonic development, organ formation, immune responses, and most importantly (as in this experiment) in wound healing. Wound healing assay is a standard in vitro technique to determine collective cell migration in two dimensions. In this assay, an insert is used to create a cell-free gap in confluent monolayer cells. The wound healing assay is initiated by removing the insert. The cell-free gap is then exposed to the cell culture medium to induce the cells to migrate into the gap until new cell-to-cell contacts are established.
The wound healing images were recorded at three different time intervals using microscope to assess the directional collective migration of the cells. The rate of wound healing was determined by measuring the change in the gap size of the cell-free area after treatment with various concentrations of complex 1 recorded over specific time-intervals (e.g., 0 hour, 6 hours, and 12 hours). The gap was measured for each frame in the wound healing and plotted as a function of time to determine the cell migration rate. The effect of varying concentration of complex 1 (1, […], 10, 30 μM) and 0.1% of DMSO (control cells) against HeLa cell migration rate was studied. […] Meanwhile, the cells treated with four different concentrations of complex 1 (1, 3, 10, 30 μM) migrated approximately 57%, 54%, 49%, and 28%, respectively. […] Further molecular studies are required to understand the mechanism behind the inhibition of cell migration.

A549 cells [4] = assay: Lactate dehydrogenase (LDH) release assay, A549; format: cell-based, human; settings: 72 hours
Protocol: (§4) The release of lactate dehydrogenase (LDH) of A549 and HeLa cells in response to the cytotoxic effect of complexes 1 and 2 was measured using the LDH cytotoxic kit protocol (Dojindo, japan). The A549 and HeLa cells were plated into 96-well plate at 5×10^5 density for overnight. The cells were treated with complexes (1 and 2) at concentrations of IC25 (0.9 μM), IC50 (1.8 […]), and IC100 (3.6 μM) in triplicate for about 72 hours. In the day of reading, 10 μL of the Lysis Buffer was added to each well of the high control. The plate was incubated at 37° C. in CO2 incubator for 30 minutes. Then, 100 μL of the Working Solution was added to each well and incubated at room temperature for 30 minutes. Then, 50 μL of the Stop Solution was added to each well before measuring the absorbance at 490 nm using Mithras 943 micro-plate reader (Berthold Tech, Wildbad, Germany). The high control (DMSO+Cells suspension+lysis buffer) and low control (DMSO+cell suspension) were used to determine the percentage of fold changes in LDH according to the following equation (I). % in LDH changes=(Low control−Test)/(Low control−High control)×100 (I)
(§5) The release of lactate dehydrogenase (LDH) directly into the culture medium is an indication of loss of membrane integrity of a cell due to necrosis or apoptosis. Therefore, the LDH activity in the medium can be used as an indicator for cell membrane integrity, and thus for measuring cytotoxicity. […] The cytotoxic effect of complexes 1 and 2 was evaluated by the release of lactate dehydrogenase (LDH) on treated cells (A549 and HeLa). The cells were treated with the complexes at concentrations of 0.9 μM, 1.8 μM, and 3.6 μM, respectively, for 72 hours.

mice = assay: Acute kidney toxicity study
From the text: The mice were separated into three groups ((I), (II), and (III)) with four animals per each cage. Group (I) was served as normal control group, which received only vehicle (0.1 volume % DMSO). […] Six hours prior to the experiment, no food and water were given. […] On the day three, the animals were sacrificed by the overdose of xylazine and ketamine anesthesia. Blood samples were collected for Blood Urea Nitrogen (BUN) and serum creatinine (CRE2) measurements. All mice were allowed one week to acclimatize prior to the experiments (five animals per cage), under standard environmental conditions (12 h light-dark cycle). The animal studies were performed according to the king Saud University ethical committee.
Kidney biochemical markers, BUN and CRE2, were used for nephrotoxicity study.

HeLa cells [5] = assay: Lactate dehydrogenase (LDH) release assay, HeLa; format: cell-based, human; settings: 72 hours
Protocol: as §4, §5

[6] = equimolar single doses of 25 mg/kg, 72 hours

| Compound | IC50 (HeLa cells [1]; 24 hours) | IC50 (HeLa cells [1]; 72 hours) | IC50 (A549 cells [2]; A549, 24 hours) | IC50 (A549 cells [2]; A549, 72 hours) | Percent (%) release of LDH (A549 cells [4]; A549, 0.9 μM) | Percent (%) release of LDH (A549 cells [4]; A549, 1.8 μM) | Percent (%) release of LDH (A549 cells [4]; A549, 3.6 μM) | Percent (%) release of LDH (HeLa cells [5]; 0.9 μM) | Percent (%) release of LDH (HeLa cells [5]; 1.8 μM) | Percent (%) release of LDH (HeLa cells [5]; 3.6 μM) | other results |
| --- | --- | --- | --- | --- | --- | --- | --- | --- | --- | --- | --- |
| N.N.[Cl][Pt][Cl] [Cisplatin, reference compound] | > 30 µM | > 30 µM | > 30 µM | > 30 µM | – | – | – | – | – | – | – |
| C1=CC2C3C=CC(C3)C2C1.CN(C)C(=S)[S][Pt+].F[P-](F)(F)(F)(F)F (centres unmarked) [Complex 1] | 1.72 µM | 1.87 µM | 2.92 µM | 1.74 µM | 31.93 ± 0.01% | 43.33 ± 0.02% | 47.00 ± 0.01% | 60.16 ± 0.02% | 73.07 ± 0.03% | 95.57 ± 0.02% | cells migrated, % of the cell-free area (scratch closure) (HeLa cells [3]; 1 μM): approximately 57%; cells migrated, % of the cell-free area (scratch closure) (HeLa cells [3]; 3 μM): ~54%; cells migrated, % of the cell-free area (scratch closure) (HeLa cells [3]; 10 μM): ~49%; cells migrated, % of the cell-free area (scratch closure) (HeLa cells [3]; 30 μM): ~28%; effect on cell migration rate (HeLa cells [3]; 1-30 μM, 0-12 h): slowed down the cell migration rate in a concentration-dependent manner; Blood Urea Nitrogen (BUN) level in Plasma (mice; 72 h after single dose, 25 mg/kg cisplatin or equimolar complex 1, CTR 6.7 ± 0.1): 6.06 ± 0.08; Creatinine (CRE2) level in Plasma (mice; 72 h after single dose, 25 mg/kg cisplatin or equimolar complex 1, CTR 17.4 ± 0.58): 15.8 ± 0.45; BUN and CRE2 levels in response to the complex (in words) (mice; 72 hours): control and normal; physical or abnormal changes (mice; [6]): No physical or abnormal changes; survival of the treatment period (mice; [6]): all animals survived; acute kidney toxicity compared to cisplatin (mice; nephrotoxicity tests): less toxic compared to cisplatin |
| C1=CC2C3C=CC(C3)C2C1.CCN(CC)C(=S)[S][Pt+].F[P-](F)(F)(F)(F)F (centres unmarked) [Complex 2] | 6.1 µM | 3.52 µM | 7.61 µM | 3.37 µM | 32.18 ± 0.004% | 41.05 ± 0.01% | 44.85 ± 0.01% | 45.52 ± 0.001% | 68.19 ± 0.04% | 94.13 ± 0.05% | – |
| C1=CC2C3C=CC(C3)C2C1.F[P-](F)(F)(F)(F)F.S=C([S][Pt+])N(Cc1ccccc1)Cc1ccccc1 [Complex 3] | 3.18 µM | 11.4 µM | 3.31 µM | 7.83 µM | – | – | – | – | – | – | change in cytotoxicity with longer exposure time (HeLa cells [1]; 24 vs 72 hours): a decrease in cytotoxicity was observed with longer exposure time; change in cytotoxicity with longer exposure time (A549 cells [2]; A549, 24 vs 72 hours): a decrease in cytotoxicity was observed with longer exposure time |

Reference: patent US11117912B1, “Platinum(II) complexes containing dicyclopentadiene and dithiocarbamate as anticancer agents” (King Fahd University of Petroleum and Minerals, priority 2020, dated 2021)
